{"source": "paper PMC11984407", "about": "“A natural small molecule isoginkgetin alleviates hypercholesterolemia and atherosclerosis by targeting ACLY” (Theranostics, 2025)", "key": {"ACLY": {"target": "T1, ACLY (Mus musculus, UniProt Q91V92)", "T1 sequence (Q91V92 1-1091)": "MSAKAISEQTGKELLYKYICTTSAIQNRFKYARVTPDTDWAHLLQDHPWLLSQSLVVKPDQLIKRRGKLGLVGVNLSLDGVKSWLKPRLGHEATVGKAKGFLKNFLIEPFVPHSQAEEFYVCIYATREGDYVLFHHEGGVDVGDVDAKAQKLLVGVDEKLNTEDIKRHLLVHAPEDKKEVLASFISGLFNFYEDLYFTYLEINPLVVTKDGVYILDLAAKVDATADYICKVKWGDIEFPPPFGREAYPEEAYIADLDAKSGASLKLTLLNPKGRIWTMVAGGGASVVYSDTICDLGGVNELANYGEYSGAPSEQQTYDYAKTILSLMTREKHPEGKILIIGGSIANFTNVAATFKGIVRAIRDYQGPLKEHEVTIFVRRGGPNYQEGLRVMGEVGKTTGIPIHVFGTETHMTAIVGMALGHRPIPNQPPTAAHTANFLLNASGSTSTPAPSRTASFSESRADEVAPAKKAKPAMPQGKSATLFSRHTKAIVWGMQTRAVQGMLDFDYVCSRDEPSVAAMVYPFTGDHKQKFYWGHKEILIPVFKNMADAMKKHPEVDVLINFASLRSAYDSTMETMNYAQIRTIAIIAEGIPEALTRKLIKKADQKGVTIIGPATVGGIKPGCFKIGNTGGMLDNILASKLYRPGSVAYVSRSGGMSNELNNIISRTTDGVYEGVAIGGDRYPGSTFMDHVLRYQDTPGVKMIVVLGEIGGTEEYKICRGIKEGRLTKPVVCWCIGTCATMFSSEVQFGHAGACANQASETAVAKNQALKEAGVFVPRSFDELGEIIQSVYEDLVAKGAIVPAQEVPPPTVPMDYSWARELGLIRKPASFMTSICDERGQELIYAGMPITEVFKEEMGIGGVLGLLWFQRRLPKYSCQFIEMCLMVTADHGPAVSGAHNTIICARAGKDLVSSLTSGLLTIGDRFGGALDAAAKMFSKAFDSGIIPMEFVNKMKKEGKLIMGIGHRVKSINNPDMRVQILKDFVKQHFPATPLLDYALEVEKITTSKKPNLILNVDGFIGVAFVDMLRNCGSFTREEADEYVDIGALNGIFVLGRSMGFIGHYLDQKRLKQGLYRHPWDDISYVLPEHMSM", "experiment": "Cellular thermal shift assay in AML12 cell lysates", "assay_type": "binding", "set-up": "The AML12 cell lysates were separated into two portions; endogenous in cells; host or cells: AML12", "details": "5 µM, 50 to 90 °C", "method": "The AML12 cell lysates were separated into two portions; one served as a control, while the other was exposed to 5 µM ISOGK for 1 h at room temperature. Subsequently, the lysates were individually heated at the specified temperatures (50 to 90 °C) for 5 min and allowed to cool at room temperature. Following this, the lysates underwent centrifugation at 12,000 rpm for 10 min at 4 °C, after which the supernatants were analyzed through Western blot."}, "Syrian golden hamsters": {"system": "Syrian golden hamsters", "experiment": "High cholesterol diet-fed Syrian golden hamsters", "assay_type": "in vivo, hamster", "method": "Syrian golden hamsters were purchased from Vital River Laboratories (Beijing, China). Hamsters were fed a high cholesterol diet and received ISOGK (5 mg/kg/day) for 4 weeks. Before being sacrificed, liver and blood samples were collected at the end of the experiment. The animal study protocol was approved by the Ethics Committee of Hefei University of Technology (approval number HFUT20221031001) and conducted in accordance with the guidelines set forth in the \"Guide for the Care and Use of Laboratory Animals,\" published by the National Institutes of Health (NIH).\nPlasma levels of TC, TG, LDL-C, and high-density lipoprotein cholesterol (HDL-C) were determined following the manufacturer's instructions. Liver tissues (30-40 mg) were homogenized in 0.5 mL of cold PBS for hepatic TG and cholesterol measurement. A 0.4 mL homogenate was combined with 1.4 mL of a CHCl3/CH3OH mixture (2:1, v/v) and shaken overnight at room temperature. Following centrifugation at 2,500 × g for a period of 10 min, the organic phase was meticulously transferred and permitted to air-dry. The residual organic material was then reconstituted in 800 μL of ethanol containing 1% Triton X-100, whereby the ethanol served to solubilize the material.\nFast protein liquid chromatography (FPLC) was employed to analyze plasma lipoproteins using 200 μL of pooled plasma samples. The samples were initially filtered through 0.22-µm filters and subsequently loaded onto Tricorn high-performance Superose S-6 10/300GL columns (Amersham Biosciences). Elution was conducted with PBS at a constant flow rate of 0.25 mL/min. The eluted fractions (500 μL each) were subjected to analysis for TG and TC concentrations using the aforementioned commercial assay kits."}, "HepG2 cells": {"system": "HepG2 cells", "experiment": "DiI-LDL uptake assay", "assay_type": "cell-based", "details": "HepG2, irrespective of dose or time", "method": "HepG2 cells were cultured in 24-well plates and incubated in DMEM supplemented with 2% LPDS and 20 µg/mL DiI-LDL (20614ES76, YEASEN, Shanghai, China) for four h at 37 °C in the dark. Subsequently, the cells were rinsed twice with PBS containing 0.4% albumin and then washed three times with PBS. To quantify the fluorescence, 400 µL of isopropanol was added to each well, and the plates were incubated at room temperature for 20 min with continuous shaking. Subsequently, 200 µL aliquots were analyzed using a SpectraMax M2e Microplate Reader (Molecular Devices) at wavelengths of 520-570 nm, as previously described previously."}, "HepG2 cell line": {"system": "HepG2 cell line", "experiment": "CCK8 cell viability, HepG2", "assay_type": "cell-based", "details": "concentrations below 7.5 μmol/L, 12 h", "method": "The cellular viability was assessed by conducting CCK8 assays in primary hepatocytes from C57BL/6J mouse and HepG2 cell line. Specifically, 2,000 cells per well were plated in 96-well plates and cultured with different concentrations of ISOGK for 12 h. Following this, cell absorption was quantified using a CCK8 kit (CA1210, Solarbio, Beijing, China), adhering strictly to the manufacturer's guidelines. The presented data represents the findings from three independent experiments, with each experiment consisting of four replicates."}, "[1]": {"details": "hamsters, 5 mg/kg/day i.p., 4 weeks"}}, "data": [{"molecule": "COc1ccc(-c2cc(=O)c3c(O)cc(O)c(-c4cc(-c5cc(=O)c6c(O)cc(O)cc6o5)ccc4OC)c3o2)cc1", "note": "[ISOGK, Isoginkgetin]", "values": [{"measurement": "thermal stabilization of ACLY", "setting": "ACLY", "value": "stabilized the ACLY protein"}, {"measurement": "decrease in hepatic TC", "setting": "Syrian golden hamsters; [1]", "value": 27.53, "unit": "%"}, {"measurement": "decrease in hepatic TG", "setting": "Syrian golden hamsters; [1]", "value": 64.14, "unit": "%"}, {"measurement": "reduction in serum LDL-C", "setting": "Syrian golden hamsters; [1]", "value": 56.55, "unit": "%"}, {"measurement": "reduction in serum TC", "setting": "Syrian golden hamsters; [1]", "value": 36.12, "unit": "%"}, {"measurement": "reduction in serum TG", "setting": "Syrian golden hamsters; [1]", "value": 46.87, "unit": "%"}, {"measurement": "lipid deposition in liver (Oil Red O)", "setting": "Syrian golden hamsters; hamsters, 4 weeks", "value": "significantly reduced lipid deposition"}, {"measurement": "serum antioxidant indicators (MDA, SOD, ox-LDL)", "setting": "Syrian golden hamsters; hamsters, 4 weeks", "value": "remained unaltered"}, {"measurement": "serum TC and TG distribution (FPLC)", "setting": "Syrian golden hamsters; hamsters, pooled plasma", "value": "significant decrease in serum TC and TG distribution"}, {"measurement": "serum ALT and AST vs vehicle", "setting": "Syrian golden hamsters; high cholesterol diet-fed hamsters, 5 mg/kg/day i.p., 4 weeks", "value": "no significant difference"}, {"measurement": "LDLR and ACLY protein levels in the liver", "setting": "Syrian golden hamsters; hyperlipidemic hamsters, 5 mg/kg/day, 4 weeks", "value": "no significant difference"}, {"measurement": "DiI-LDL uptake", "setting": "HepG2 cells", "value": "no significant effect on LDL uptake"}, {"measurement": "cytotoxicity (CCK-8)", "setting": "HepG2 cell line", "value": "no significant cytotoxicity"}]}]}
